How the values were obtained:
[1] = system: CYPIR (Cyperus iria, rice flatsedge); experiment: Postemergence foliar-applied weed control, direct seeded rice, greenhouse (Example I); type: in vivo, Cyperus iria L.; conditions: 22 DAA; 12.5 gai/ha
Text: (§1) Seeds or nutlets of the desired test plant species were planted in a soil matrix prepared by mixing a loam or sandy loam soil (e.g., 28.6 percent silt, 18.8 percent clay, and 52.6 percent sand, with a pH of about 5.8 and an organic matter content of about 1.8 percent) and calcareous grit in an 80 to 20 ratio. The soil matrix was contained in plastic pots with a volume of 1 quart and a surface area of 83.6 square centimeters (cm^2). When required to ensure good germination and healthy plants, a fungicide treatment and/or other chemical or physical treatment was applied. The plants were grown for 8-22 days in a greenhouse with an approximate 14 h photoperiod which was maintained at about 29° C. during the day and 26° C. during the night. Nutrients (Peters Excel® 15-5-15 5-Ca 2-Mg and iron chelate) were applied in the irrigation solution as needed and water was added on a regular basis. Supplemental lighting was provided with overhead metal halide 1000-Watt lamps as necessary. The plants were employed for testing when they reached the first through fourth true leaf stage.
(§2) Treatments consisted of the acid or esters of 4-amino-3-chloro-5-fluoro-6-(4-chloro-2-fluoro-3-methoxy-phenyl)pyridine-2-carboxylic acid (Compound A), each formulated as an SC, and various herbicidal components alone and in combination. Forms of compound A were applied on an acid equivalent basis.
(§3) Other herbicidal components were applied on an active ingredient basis and included acetolactate synthase (ALS)-inhibiting herbicides (sulfonylurea chemical class) azimsulfuron formulated as Gulliver®, bensulfuron-methyl formulated as Londax® 60DF, cyclosulfamuron (technical material), ethoxysulfuron formulated as Sunrice® 15 WDG, flazasulfuron formulated as Katana®, flucetosulfuron formulated as Sukedachi® 1KG G, foramsulfuron formulated as Option®, imazosulfuron formulated as Brazzos® WG, iodosulfuron-methyl-sodium formulated as Hussar®, metsulfuron-methyl formulated as Lorate®, nicosulfuron formulated as Accent®, orthosulfamuron formulated as Strada® WG, primisulfuron-methyl (technical material), propyrisulfuron formulated as Zeta One®, rimsulfuron formulated as Matrix® WG, sulfometuron-methyl formulated as Oust®, and trifloxysulfuron-sodium formulated as Monument® 75WG.
(§4) Treatment requirements were calculated based upon the rates being tested, the concentration of active ingredient or acid equivalent in the formulation, and a 12 mL application volume at a rate of 187 L/ha.
(§5) For treatments comprised of formulated compounds, measured amounts of compounds were placed individually in 25 mL glass vials and diluted in a volume of 1.25% (v/v) Agri-Dex® crop oil concentrated to obtain 12× stock solutions. […] Application solutions were prepared by adding an appropriate amount of each stock solution (e.g., 1 mL) and diluted to the appropriate final concentrations with the addition of 10 mL of an aqueous mixture of 1.25% (v/v) crop oil concentrate so that the final spray solutions contained 1.25+/−0.05% (v/v) Agrcrop oil concentrate.
(§6) For treatments comprised of formulated and technical compounds, weighed amounts of the technical materials were placed individually in 25 mL glass vials and dissolved in a volume of 97:3 v/v acetone/DMSO to obtain 12× stock solutions, and measured amounts of the formulated compounds were placed individually in 25 mL glass vials and diluted in a volume of 1.25% (v/v) crop oil concentrate to obtain 12× stock solutions. […] Application solutions were prepared by adding an appropriate amount of each stock solution (e.g., 1 mL) and diluted to the appropriate final concentrations with the addition of an appropriate amount of an aqueous mixture of 1.5% (v/v) crop oil concentrate so that the final spray solutions contained 1.25% (v/v) crop oil concentrate. […]

[2] = system: SCPMA (Bolboschoenus maritimus or Schoenoplectus maritimus, sea clubrush); experiment: In-water applied weed control, transplanted paddy rice, greenhouse (Example II); type: in vivo, Bolboschoenus maritimus (L.) Palla
Procedure: (§7) Weed seeds or nutlets of the desired test plant species were planted in puddled soil (mud) prepared by mixing a shredded, non-sterilized mineral soil (50.5 percent silt, 25.5 percent clay, and 24 percent sand, with a pH of about 7.6 and an organic matter content of about 2.9 percent) and water at a 1:1 volumetric ratio. The prepared mud was dispensed in 365 mL aliquots into 16-ounce (oz.) non-perforated plastic pots with a surface area of 86.59 square centimeters (cm^2) leaving a headspace of 3 centimeters (cm) in each pot. Rice seeds were planted in Sun Gro MetroMix® 306 planting mixture, which typically has a pH of 6.0 to 6.8 and an organic matter content of about 30 percent, in plastic plug trays. Seedlings at the second or third leaf stage of growth were transplanted into 860 mL of mud contained in 32-oz. non-perforated plastic pots with a surface area of 86.59 cm^2 4 days prior to herbicide application. The paddy was created by filling the headspace of the pots with 2.5 to 3 cm of water. When required to ensure good germination and healthy plants, a fungicide treatment and/or other chemical or physical treatment was applied. The plants were grown for 4-22 days in a greenhouse with an approximate 14 h photoperiod which was maintained at about 29′C during the day and 26° C. during the night. Nutrients were added as Osmocote® (19:6:12, N:P:K+minor nutrients) at 2 g per 16-oz. pot and 4 g per 32-oz. pot. Water was added on a regular basis to maintain the paddy flood, and supplemental lighting was provided with overhead metal halide 1000-Watt lamps as necessary. The plants were employed for testing when they reached the first through fourth true leaf stage.
(§8) Treatments consisted of the acid or esters of 4-amino-3-chloro-5-fluoro-6-(4-chloro-2-fluoro-3-methoxy-phenyl)pyridine-2-carboxylic acid (compound A) each formulated as an SC and various herbicidal components alone and in combination. Forms of compound A were applied on an acid equivalent basis.
(§9) Other herbicidal components were applied on an active ingredient basis and included acetolactate synthase (ALS)-inhibiting herbicides (sulfonylurea chemical class), azimsulfuron formulated as Gulliver®, bensulfuron-methyl formulated as Londax® 60DF, cyclosulfamuron (technical grade materail), ethoxysulfuron formulated as Sunrice® 15 WDG, flucetosulfuron formulated as Sukedachi® 1KG G, imazosulfuron formulated as Brazzos®, metsulfuron-methyl formulated as Lorate®, nicosulfuron formulated as Accent®, orthosulfamuron formulated as Strada® WG, propyrisulfuron formulated as Zeta One®, and rimsulfuron formulated as Matrix® WG.
(§10) Treatment requirements for each compound or herbicidal component were calculated based upon the rates being tested, the concentration of active ingredient or acid equivalent in the formulation, an application volume of 2 mL per component per pot, and an application area of 86.59 cm^2 per pot.
(§11) For formulated compounds, a measured amount was placed in an individual 100 or 200 mL glass vial and was dissolved in a volume of 1.25% (v/v) Agri-Dex® crop oil concentrate to obtain application solutions.
(§12) For technical grade compounds, a weighed amount was placed in an individual 100 to 200 mL glass vial and was dissolved in a volume of acetone to obtain concentrated stock solutions. […] The concentrated stock solutions obtained were diluted with an equivalent volume of an aqueous mixture containing 2.5% (v/v) crop oil concentrate so that the final application solutions contained 1.25% (v/v) crop oil concentrate.
(§13) Applications were made by injecting with a pipetter appropriate amounts of the application solutions, individually and sequentially, into the aqueous layer of the paddy. Control plants were treated in the same manner with the solvent blank. Applications were made so that all treated plant material received the same concentrations of acetone and crop oil concentrate. […]

[3] = system: BRAPP (Brachiaria platyphylla, broadleaf signalgrass); experiment: Postemergence foliar-applied weed control, direct seeded rice, greenhouse (Example I); type: in vivo, Brachiaria platyphylla (Griseb.) Nash; conditions: Urochloa platyphylla, post-emergence, 480 h, 20 DAA, read-out: Visual Weed Control (%) Obs
Text: as §1, §2, §3, §4, §5, §6

[4] = system: LEFCH (Leptochloa chinensis, Chinese sprangletop); experiment: as above; type: in vivo, Leptochloa chinensis (L.) Nees; conditions: Dinebra chinensis, post-emergence
Text: as §1, §2, §3, §4, §5, §6

[5] = system: ECHOR (Echinochloa oryzoides, early watergrass); experiment: In-water applied weed control, transplanted paddy rice, greenhouse (Example II); type: in vivo, Echinochloa oryzoides (Ard.) Fritsch
Procedure: as §7, §8, §9, §10, §11, §12, §13

[6] = system: DIGSA (Digitaria sanguinalis, large crabgrass); experiment: Postemergence foliar-applied weed control, direct seeded rice, greenhouse (Example I); type: in vivo, Digitaria sanguinalis (L.) Scop.
Text: as §1, §2, §3, §4, §5, §6

[7] = Table 28, second set, 25 gai/ha alone

COc1cc(OC)nc(NC(=O)NS(=O)(=O)Nc2ccccc2C(=O)C2CC2)n1 [Cyclosulfamuron, N-[[[2-(cyclopropylcarbonyl)phenyl]amino]sulfonyl]-N′-(4,6-dimethoxy-2-pyrimidinyl)urea, reference compound]
Visual Weed Control (%) Obs [1]: 95%
Visual Weed Control (%) - 21 DAA SCPMA Obs ([2]; Table 33, 12.5 gai/ha alone): 75%

COc1cc(OC)nc(NC(=O)NS(=O)(=O)c2c(-c3nnn(C)n3)cnn2C)n1 [Azimsulfuron, N-[[(4,6-dimethoxy-2-pyrimidinyl)amino]carbonyl]-1-methyl-4-(2-methyl-2H-tetrazol-5-yl)-1H-pyrazole-5-sulfonamide, reference compound]
pest or weed control at 3.125 g/ha ([3]; 3.125 gai/ha): 0%
pest or weed control at 6.25 g/ha ([3]; 6.25 gai/ha): 0%
pest or weed control at 12.5 g/ha ([3]; 12.5 gai/ha): 60%
pest or weed control at 3.125 g/ha ([4]; 480 h, 20 DAA, 3.125 gai/ha, read-out: Visual Weed Control (%) Obs): 0%
pest or weed control at 6.25 g/ha ([4]; 480 h, 20 DAA, 6.25 gai/ha, read-out: Visual Weed Control (%) Obs): 0%
Visual Weed Control (%) - 20 DAA ECHOR Obs ([5]; Table 28, 2.5 gai/ha alone): 0%
Visual Weed Control (%) - 20 DAA ECHOR Obs [5, 7]: 60%
Visual Weed Control (%) - 20 DAA ECHOR Obs ([5]; Table 29, 2.5 gai/ha alone): 0%
Visual Weed Control (%) - 20 DAA ECHOR Obs ([5]; Table 29, 5 gai/ha alone): 20%
Visual Weed Control (%) - 20 DAA ECHOR Obs ([5]; Table 29, 25 gai/ha alone): 60%
Visual Weed Control (%) - 20 DAA ECHOR Obs ([5]; Table 30, 25 gai/ha alone): 60%
Visual Weed Control (%) - 20 DAA SCPMA Obs ([2]; Table 28, 2.5 gai/ha alone): 70%
Visual Weed Control (%) - 20 DAA SCPMA Obs [2, 7]: 85%
Visual Weed Control (%) - 20 DAA SCPMA Obs ([2]; Table 29, 2.5 gai/ha alone): 70%
Visual Weed Control (%) - 20 DAA SCPMA Obs ([2]; Table 29, 25 gai/ha alone): 85%

COc1cc(OC)nc(NC(=O)NS(=O)(=O)c2cc(NC=O)ccc2C(=O)N(C)C)n1 [Foramsulfuron, 2-[[[[(4,6-dimethoxy-2-pyrimidinyl)amino]carbonyl]amino]sulfonyl]-4-(formylamino)-N,N-dimethylbenzamide]
pest or weed control at 20 g/ha ([4]; 504 h, 21 DAA, 20 gai/ha, read-out: Visual Weed Control (%) Obs): 0%
pest or weed control at 40 g/ha ([4]; 504 h, 21 DAA, 40 gai/ha, read-out: Visual Weed Control (%) Obs): 25%

COC(=O)c1ccccc1S(=O)(=O)NC(=O)Nc1nc(OC(F)F)cc(OC(F)F)n1 [Primisulfuron-methyl, methyl 2-[[[[[4,6-bis(difluoromethoxy)-2-pyrimidinyl]amino]carbonyl]amino]sulfonyl]benzoate]
pest or weed control at 15 g/ha ([4]; 504 h, read-out: Visual Weed Control (%) Obs, 21 DAA, 15 gai/ha): 40%
pest or weed control at 30 g/ha ([4]; 504 h, read-out: Visual Weed Control (%) Obs, 21 DAA, 30 gai/ha): 60%

COC(=O)c1ccccc1S(=O)(=O)NC(=O)Nc1nc(C)cc(C)n1 [Sulfometuron-methyl, methyl 2-[[[[(4,6-dimethyl-2-pyrimidinyl)amino]carbonyl]amino]sulfonyl]benzoate, reference compound]
Visual Weed Control (%) Obs ([6]; 22 DAA, 35 gai/ha): 85%

COc1cc(OC)nc(NC(=O)[N-]S(=O)(=O)c2ncccc2OCC(F)(F)F)n1.[Na+] [Trifloxysulfuron-sodium]
Visual Weed Control (%) - 21 DAA DIGSA Obs ([6]; Table 27, foliar-applied, 24 gai/ha alone): 65%
